Results as given in patent US9663473B2 (Actelion Pharmaceuticals Ltd, priority 2013, dated 2017).

What follows are compounds tested against T1, recombinant human ALX receptor (Homo sapiens, UniProt P25090) (assay: Intracellular calcium measurements (FLIPR), ALX receptor agonistic activity). Conditions: HEK293-hALXR-Gα16 cells, Fluo-4 calcium signal, normalized to WKYMVm 10 nM.
T1 construct: expressed in transfected cells; host or cells: HEK293 (HEK293-hALXR-Gα16)
T1 sequence (P25090 1-351): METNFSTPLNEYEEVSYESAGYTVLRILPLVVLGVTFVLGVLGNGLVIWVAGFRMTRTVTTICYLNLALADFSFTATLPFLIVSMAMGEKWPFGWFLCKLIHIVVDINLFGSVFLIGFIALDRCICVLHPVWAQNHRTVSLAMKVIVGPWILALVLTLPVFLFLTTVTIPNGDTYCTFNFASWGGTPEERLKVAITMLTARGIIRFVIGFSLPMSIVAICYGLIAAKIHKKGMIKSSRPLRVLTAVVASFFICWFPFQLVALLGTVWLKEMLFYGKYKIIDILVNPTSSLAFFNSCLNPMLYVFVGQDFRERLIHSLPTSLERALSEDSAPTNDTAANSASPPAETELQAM
Assay type: cell-based
Experimental: The ALX receptor agonistic activity of the compounds of formula (I) is determined in accordance with the following experimental method.
Intracellular Calcium Measurements:
Cells expressing recombinant human ALX receptor and the G-protein Gα16 (HEK293-hALXR-Gα16) were grown to 80% confluency in Growing Medium (GM). Cells were detached from culture dishes with a cell dissociation buffer (Invitrogen, 13151-014), and collected by centrifugation at 1′000 rpm at rt for 5 min in Assay Buffer (AB) (equal parts of Hank's BSS (Gibco, 14065-049) and DMEM without Phenol Red (Gibco, 11880-028)). After 60 min incubation at 37° C. under 5% CO2 in AB supplemented with 1 μM Fluo-4 (AM) (Invitrogen, F14202) and 20 mM HEPES (Gibco, 15630-056), the cells were washed and resuspended in AB. They were then seeded onto 384-well FLIPR assay plates (Greiner, 781091) at 50′000 cells in 70 μl per well and sedimented by centrifugation at 1′000 rpm for 1 min. Stock solutions of test compounds were made up at a concentration of 10 mM in DMSO, and serially diluted in AB to concentrations required for activation dose response curves. WKYMVm (Phoenix Peptides) was used as a reference agonist. A FLIPR Tetra instrument (Molecular Devices) was operated according to the manufacturer's standard instructions, adding 4 μl of test compound dissolved at 10 mM in DMSO and diluted prior to the experiment in assay buffer to obtain the desired final concentration. Changes in fluorescence were monitored before and after the addition of test compounds at lex=488 nm and lem=540 nm. Emission peak values above base level after compounds addition were exported after base line subtraction. Values were normalized to high-level control (WKYMVm compound, 10 nM final concentration) after subtraction of the base line value (AB addition).

Compound	EC50 [nM]
COc1ccc(C[C@@H](NC(=O)NC(C)(C)c2ccc(Cl)cc2)c2nc3ccccc3[nH]2)cc1 [Example 352, (R)-1-(1-(1H-Benzo[d]imidazol-2-yl)-2-(4-methoxyphenyl)ethyl)-3-(2-(4-chlorophenyl)propan-2-yl)urea]	372
COc1ccc(CC(NC(=O)NC2CCOCC2)c2nc3ccccc3[nH]2)cc1 (stereo not shown) [Example 10, 1-(1-(1H-Benzo[d]imidazol-2-yl)-2-(4-methoxyphenyl)ethyl)-3-(tetrahydro-2H-pyran-4-yl)urea]	113
COc1ccc(C[C@@H](NC(=O)NC2CCNCC2)c2nc3ccccc3[nH]2)cc1 [Example 108, (R)-1-(1-(1H-Benzo[d]imidazol-2-yl)-2-(4-methoxyphenyl)ethyl)-3-(piperidin-4-yl)urea]	52
COc1ccc(C[C@@H](NC(=O)N[C@H]2CCCNC2)c2nc3ccccc3[nH]2)cc1 [Example 132, 1-((R)-1-(1H-Benzo[d]imidazol-2-yl)-2-(4-methoxyphenyl)ethyl)-3-((S)-piperidin-3-yl)urea]	23
COc1ccc(C[C@@H](NC(=O)NC2(c3ccccc3)CC2)c2nc3ccccc3[nH]2)cc1 [Example 351, (R)-1-(1-(1H-Benzo[d]imidazol-2-yl)-2-(4-methoxyphenyl)ethyl)-3-(1-phenylcyclopropyl)urea]	350
COc1ccc(CC(NC(=O)NC23CCC(O)(CC2)CC3)c2nc3ccccc3[nH]2)cc1F (stereo not shown) [Example 193, 1-(1-(1H-Benzo[d]imidazol-2-yl)-2-(3-fluoro-4-methoxyphenyl)ethyl)-3-(4-hydroxybicyclo[2.2.2]octan-1-yl)urea]	1.8
COc1ccc(CC(NC(=O)Nc2cc(C)on2)c2nc3ccccc3[nH]2)cc1 (stereo not shown) [Example 401, 1-(1-(1H-Benzo[d]imidazol-2-yl)-2-(4-methoxyphenyl)ethyl)-3-(5-methylisoxazol-3-yl)urea]	372
COc1ccc(CC(NC(=O)NCc2cccc(Cl)c2)c2nc3ccccc3[nH]2)cc1 (stereo not shown) [Example 46, 1-(1-(1H-Benzo[d]imidazol-2-yl)-2-(4-methoxyphenyl)ethyl)-3-(3-chlorobenzyl)urea]	601
COc1ccc(C[C@@H](NC(=O)NCCc2ccc(C(F)(F)F)cc2)c2nc3ccccc3[nH]2)cc1 [Example 269, (R)-1-(1-(1H-Benzo[d]imidazol-2-yl)-2-(4-methoxyphenyl)ethyl)-3-(4-(trifluoromethyl)phenethyl)urea]	471
COc1ccc(C[C@@H](NC(=O)NCC2COc3cnccc32)c2nc3ccccc3[nH]2)cc1 (stereo partly drawn) [Example 282, 1-((R)-1-(1H-Benzo[d]imidazol-2-yl)-2-(4-methoxyphenyl)ethyl)-3-((2,3-dihydrofuro[2,3-c]pyridin-3-yl)methyl)urea]	351
COc1ccc(CC(NC(=O)NCCc2cccc(OC)c2)c2nc3ccccc3[nH]2)cc1 (stereo not shown) [Example 47, 1-(1-(1H-Benzo[d]imidazol-2-yl)-2-(4-methoxyphenyl)ethyl)-3-(3-methoxyphenethyl)urea]	137
COc1ccc(C[C@@H](NC(=O)NC2CCNC2)c2nc3ccccc3[nH]2)cc1 (stereo partly drawn) [Example 100, 1-((R)-1-(1H-Benzo[d]imidazol-2-yl)-2-(4-methoxyphenyl)ethyl)-3-(pyrrolidin-3-yl)urea]	87
COc1ccc(CC(NC(=O)Nc2ccnn2-c2ccccc2OC)c2nc3ccccc3[nH]2)cc1 (stereo not shown) [Example 421, 1-(1-(1H-benzo[d]imidazol-2-yl)-2-(4-methoxyphenyl)ethyl)-3-(1-(2-methoxyphenyl)-1H-pyrazol-5-yl)urea]	46
COc1cc(F)c(CC(NC(=O)N[C@H]2CC[C@H](O)CC2)c2nc3ccccc3[nH]2)cc1F (single isomer, unassigned; ent-1) [Example 356, 1-(1-(1H-Benzo[d]imidazol-2-yl)-2-(2,5-difluoro-4-methoxyphenyl)ethyl)-3-(trans-4-hydroxycyclohexyl)urea (ent-1)]	5.5
CC(F)(F)c1ccc(CC(NC(=O)N[C@H]2CC[C@H](O)CC2)c2nc3ccccc3[nH]2)cc1 (single isomer, unassigned; ent-1) [Example 394, 1-(1-(1H-Benzo[d]imidazol-2-yl)-2-(4-(1,1-difluoroethyl)phenyl)ethyl)-3-(trans-4-hydroxycyclohexyl)urea (ent-1)]	4.7
COc1ccc(C[C@@H](NC(=O)NC(C)c2cn3ccsc3n2)c2nc3ccccc3[nH]2)cc1 (stereo partly drawn) [Example 338, 1-((R)-1-(1H-Benzo[d]imidazol-2-yl)-2-(4-methoxyphenyl)ethyl)-3-(1-(imidazo[2,1-b]thiazol-6-yl)ethyl)urea]	36
CC1(O)CCC(NC(=O)NC(Cc2ccc(Br)c(F)c2)c2nc3ccccc3[nH]2)CC1 (single isomer, unassigned; ent-2) [Example 317, 1-(1-(1H-Benzo[d]imidazol-2-yl)-2-(4-bromo-3-fluorophenyl)ethyl)-3-(trans-4-hydroxy-4-methylcyclohexyl)urea (ent-2)]	5.7
COc1ccc(C[C@@H](NC(=O)N2CCC3CN(C(=O)OC(C)(C)C)CC32)c2nc3ccccc3[nH]2)cc1 (stereo partly drawn) [Example 120, tert-Butyl 1-(((R)-1-(1H-benzo[d]imidazol-2-yl)-2-(4-methoxyphenyl)ethyl)carbamoyl)hexahydropyrrolo[3,4-b]pyrrole-5(1H)-carboxylate]	57
COc1ccc(C[C@@H](NC(=O)NCCN2CCc3ccccc32)c2nc3ccccc3[nH]2)cc1 [Example 286, (R)-1-(1-(1H-Benzo[d]imidazol-2-yl)-2-(4-methoxyphenyl)ethyl)-3-(2-(indolin-1-yl)ethyl)urea]	102
COc1ccc(CC(NC(=O)NCCN2CCCC2)c2nc3ccccc3[nH]2)cc1 (stereo not shown) [Example 391, 1-(1-(1H-Benzo[d]imidazol-2-yl)-2-(4-methoxyphenyl)ethyl)-3-(2-(pyrrolidin-1-yl)ethyl)urea]	2720
COc1ccc(C[C@@H](NC(=O)NCc2ccn(CC(F)(F)F)n2)c2nc3ccccc3[nH]2)cc1 [Example 293, (R)-1-(1-(1H-Benzo[d]imidazol-2-yl)-2-(4-methoxyphenyl)ethyl)-3-((1-(2,2,2-trifluoroethyl)-1H-pyrazol-3-yl)methyl)urea]	168
C[C@]1(O)CC[C@H](NC(=O)N[C@H](Cc2ccc(C(F)(F)F)cc2)c2nc3ccccc3[nH]2)CC1 [Example 256, 1-((R)-1-(1H-Benzo[d]imidazol-2-yl)-2-(4-(trifluoromethyl)phenyl)ethyl)-3-(trans-4-hydroxy-4-methylcyclohexyl)urea]	13
COc1ccc(C[C@@H](NC(=O)NCCc2ccccc2)c2nc3ccccc3[nH]2)cc1 [Example 67, (R)-1-(1-(1H-Benzo[d]imidazol-2-yl)-2-(4-methoxyphenyl)ethyl)-3-phenethylurea]	415
COc1ccc(CC(NC(=O)NC23CCC(O)(CC2)CC3)c2nc3ccccc3[nH]2)c(F)c1 (single isomer, unassigned; ent-1) [Example 261, 1-(1-(1H-Benzo[d]imidazol-2-yl)-2-(2-fluoro-4-methoxyphenyl)ethyl)-3-(4-hydroxybicyclo[2.2.2]octan-1-yl)urea (ent-1)]	3.2
COc1ccc(C[C@@H](NC(=O)NCc2cccnc2COC(C)C(F)(F)F)c2nc3ccccc3[nH]2)cc1 (stereo partly drawn) [Example 216, 1-((R)-1-(1H-Benzo[d]imidazol-2-yl)-2-(4-methoxyphenyl)ethyl)-3-((2-(((1,1,1-trifluoropropan-2-yl)oxy)methyl)pyridin-3-yl)methyl)urea]	2.1
COc1ccc(C[C@@H](NC(=O)N[C@H]2CC[C@H](O)CC2)c2nc3cc([N+](=O)[O-])ccc3[nH]2)cc1 [Example 148, 1-(trans-4-Hydroxycyclohexyl)-3-((R)-2-(4-methoxyphenyl)-1-(5-nitro-1H-benzo[d]imidazol-2-yl)ethyl)urea]	18
COc1ccc(C[C@@H](NC(=O)N2CCC3NCCC32)c2nc3ccccc3[nH]2)cc1 (stereo partly drawn) [Example 128, N—((R)-1-(1H-Benzo[d]imidazol-2-yl)-2-(4-methoxyphenyl)ethyl)hexahydropyrrolo[3,2-b]pyrrole-1(2H)-carboxamide]	308
C[C@]1(O)CC[C@H](NC(=O)NC(Cc2ccc(Br)c(F)c2)c2nc3ccccc3[nH]2)CC1 (mixture of isomers) [Example 231, 1-(1-(1H-Benzo[d]imidazol-2-yl)-2-(4-bromo-3-fluorophenyl)ethyl)-3-(trans-4-hydroxy-4-methylcyclohexyl)urea]	5.2
